Results reported in US20230123334A1, “AMINO LIPID COMPOUND, PREPARATION METHOD THEREFOR, AND APPLICATION THEREOF” (SHENZHEN SHENXIN BIOTECHNOLOGY CO., LTD., priority 2020, published 2023).

Tested on: HEK293 cells
Test: Preliminary screening as DNA vectors, GFP transfection of HEK293 cells
Type: cell-based
Details: amino lipid/DOPE liposome with 75 ng plasmid DNA (psin-EGFP-IRES-Puro); number of GFP-expressing cells divided by total nuclei (Hoechst)
How it was run: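 Lipid + DOPE liposomes (NaOAc, pH 5.6) complexed w/ 75 ng psin-EGFP-IRES-Puro, 30 min RT; added to 3-5×10^4 HEK293/well, 37° C. Hoechst 0.2 μg/mL at 20-24 h, imaged after further 20-24 h. Efficiency = GFP+ cells / total nuclei.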

Compound | Absolute DNA transfection efficiency in HEK293 cells [%]
CCCCCCCCCCCCCCCCCCSc1nc(NCCCCCCCCCCCC)nc(NCCN2CCCCC2)n1 [S18N12 D4] | 0.3
CCCCCCCCCCCCCCCCCCSc1nc(NCCCCCCCCCCCC)nc(NCCN2CCN(C)CC2)n1 [S18N12 D5] | 1.0
CCCCCCCCCCCCCCCCCCSc1nc(NCCCCCCCCCCCC)nc(NCCCN(C)C)n1 [S18N12 D6] | 0.5
CCCCCCCCCCCCCCCCCCSc1nc(NCCCCCCCCCCCC)nc(NCCN(CC)CC)n1 [S18N12 D7] | 0.5
CCCCCCCCCCCCCCCCCCSc1nc(NCCCCCCCCCCCC)nc(NCCCN2CCOCC2)n1 [S18N12 D8] | 0.0
CCCCCCCCCCCCCCCCCCSc1nc(NCCCCCCCCCCCC)nc(NCCCN2CCN(C)CC2)n1 [S18N12 D9] | 0.0
CCCCCCCCCCCCCCCCCCSc1nc(NCCCCCCCCCCCC)nc(NCC2CCN(C)CC2)n1 [S18N12 D10] | 5.3
CCCCCCCCCCCCCCCCCCSc1nc(NCCCCCCCCCCCCC)nc(NCCN(C)C)n1 [S18N13 D1] | 1.3
CCCCCCCCCCCCCCCCCCSc1nc(NCCCCCCCCCCCCC)nc(NCCN2CCOCC2)n1 [S18N13 D2] | 0.0
CCCCCCCCCCCCCCCCCCSc1nc(NCCCCCCCCCCCCC)nc(NCCN2CCCC2)n1 [S18N13 D3] | 2.8
CCCCCCCCCCCCCCCCCCSc1nc(NCCCCCCCCCCCCC)nc(NCCN2CCCCC2)n1 [S18N13 D4] | 0.0
CCCCCCCCCCCCCCCCCCSc1nc(NCCCCCCCCCCCCC)nc(NCCN2CCN(C)CC2)n1 [S18N13 D5] | 0.0
CCCCCCCCCCCCCCCCCCSc1nc(NCCCCCCCCCCCCC)nc(NCCCN(C)C)n1 [S18N13 D6] | 2.6
CCCCCCCCCCCCCCCCCCSc1nc(NCCCCCCCCCCCCC)nc(NCCN(CC)CC)n1 [S18N13 D7] | 0.0
CCCCCCCCCCCCCCCCCCSc1nc(NCCCCCCCCCCCCC)nc(NCCCN2CCOCC2)n1 [S18N13 D8] | 0.0
CCCCCCCCCCCCCCCCCCSc1nc(NCCCCCCCCCCCCC)nc(NCCCN2CCN(C)CC2)n1 [S18N13 D9] | 1.8
CCCCCCCCCCCCCCCCCCSc1nc(NCCCCCCCCCCCCC)nc(NCC2CCN(C)CC2)n1 [S18N13 D10] | 0.9
CCCCCCCCCCCCCCCCCCSc1nc(NCCCCCCCCCCCCCCC)nc(NCCN(C)C)n1 [S18N15 D1] | 0.2
CCCCCCCCCCCCCCCCCCSc1nc(NCCCCCCCCCCCCCCC)nc(NCCN2CCOCC2)n1 [S18N15 D2] | 0.0

Compound | Absolute DNA transfection efficiency in HEK293 cells [%]
CCCCCCCCCCCCCCCCCCSc1nc(NCCCCCCCCCCCCCCC)nc(NCCN2CCCC2)n1 [S18N15 D3] | 0.2
CCCCCCCCCCCCCCCCCCSc1nc(NCCCCCCCCCCCCCCC)nc(NCCN2CCCCC2)n1 [S18N15 D4] | 0.2
CCCCCCCCCCCCCCCCCCSc1nc(NCCCCCCCCCCCCCCC)nc(NCCN2CCN(C)CC2)n1 [S18N15 D5] | 0.0
CCCCCCCCCCCCCCCCCCSc1nc(NCCCCCCCCCCCCCCC)nc(NCCCN(C)C)n1 [S18N15 D6] | 0.0
CCCCCCCCCCCCCCCCCCSc1nc(NCCCCCCCCCCCCCCC)nc(NCCN(CC)CC)n1 [S18N15 D7] | 0.1
CCCCCCCCCCCCCCCCCCSc1nc(NCCCCCCCCCCCCCCC)nc(NCCCN2CCOCC2)n1 [S18N15 D8] | 0.0
CCCCCCCCCCCCCCCCCCSc1nc(NCCCCCCCCCCCCCCC)nc(NCCCN2CCN(C)CC2)n1 [S18N15 D9] | 0.1
CCCCCCCCCCCCCCCCCCSc1nc(NCCCCCCCCCCCCCCC)nc(NCC2CCN(C)CC2)n1 [S18N15 D10] | 0.2
CCCCCCCCCCCCCCCCCCSc1nc(NCCCCCCCCCCCCCCCC)nc(NCCN(C)C)n1 [S18N16 D1] | 0.0
CCCCCCCCCCCCCCCCCCSc1nc(NCCCCCCCCCCCCCCCC)nc(NCCN2CCOCC2)n1 [S18N16 D2] | 0.0
CCCCCCCCCCCCCCCCCCSc1nc(NCCCCCCCCCCCCCCCC)nc(NCCN2CCCC2)n1 [S18N16 D3] | 0.1
CCCCCCCCCCCCCCCCCCSc1nc(NCCCCCCCCCCCCCCCC)nc(NCCN2CCCCC2)n1 [S18N16 D4] | 0.1
CCCCCCCCCCCCCCCCCCSc1nc(NCCCCCCCCCCCCCCCC)nc(NCCN2CCN(C)CC2)n1 [S18N16 D5] | 0.2
CCCCCCCCCCCCCCCCCCSc1nc(NCCCCCCCCCCCCCCCC)nc(NCCCN(C)C)n1 [S18N16 D6] | 0.0
CCCCCCCCCCCCCCCCCCSc1nc(NCCCCCCCCCCCCCCCC)nc(NCCN(CC)CC)n1 [S18N16 D7] | 0.0
CCCCCCCCCCCCCCCCCCSc1nc(NCCCCCCCCCCCCCCCC)nc(NCCCN2CCOCC2)n1 [S18N16 D8] | 0.0
CCCCCCCCCCCCCCCCCCSc1nc(NCCCCCCCCCCCCCCCC)nc(NCCCN2CCN(C)CC2)n1 [S18N16 D9] | 0.0
CCCCCCCCCCCCCCCCCCSc1nc(NCCCCCCCCCCCCCCCC)nc(NCC2CCN(C)CC2)n1 [S18N16 D10] | 0.1
CCCCCCCCCCCCCCCCCCNc1nc(NCCN(C)C)nc(SCCCCCCCCCCCCCCCCCC)n1 [S18N18 D1] | 0.1

Compound | Absolute DNA transfection efficiency in HEK293 cells [%]
CCCCCCCCCCCCCCCCCCNc1nc(NCCN2CCOCC2)nc(SCCCCCCCCCCCCCCCCCC)n1 [S18N18 D2] | 0.1
CCCCCCCCCCCCCCCCCCNc1nc(NCCN2CCCC2)nc(SCCCCCCCCCCCCCCCCCC)n1 [S18N18 D3] | 0.0
CCCCCCCCCCCCCCCCCCNc1nc(NCCN2CCCCC2)nc(SCCCCCCCCCCCCCCCCCC)n1 [S18N18 D4] | 0.0
CCCCCCCCCCCCCCCCCCNc1nc(NCCN2CCN(C)CC2)nc(SCCCCCCCCCCCCCCCCCC)n1 [S18N18 D5] | 0.0
CCCCCCCCCCCCCCCCCCNc1nc(NCCCN(C)C)nc(SCCCCCCCCCCCCCCCCCC)n1 [S18N18 D6] | 0.4
CCCCCCCCCCCCCCCCCCNc1nc(NCCN(CC)CC)nc(SCCCCCCCCCCCCCCCCCC)n1 [S18N18 D7] | 0.0
CCCCCCCCCCCCCCCCCCNc1nc(NCCCN2CCOCC2)nc(SCCCCCCCCCCCCCCCCCC)n1 [S18N18 D8] | 0.0
CCCCCCCCCCCCCCCCCCNc1nc(NCCCN2CCN(C)CC2)nc(SCCCCCCCCCCCCCCCCCC)n1 [S18N18 D9] | 0.0
CCCCCCCCCCCCCCCCCCNc1nc(NCC2CCN(C)CC2)nc(SCCCCCCCCCCCCCCCCCC)n1 [S18N18 D10] | 0.0
CCCCCCCCCCCCCCCCCCSc1nc(NCCN(C)C)nc(N(CCCCCCCCCCCC)CCCCCCCCCCCC)n1 [S18^2N12 D1] | 0.0
CCCCCCCCCCCCCCCCCCSc1nc(NCCN2CCOCC2)nc(N(CCCCCCCCCCCC)CCCCCCCCCCCC)n1 [S18^2N12 D2] | 0.0
CCCCCCCCCCCCCCCCCCSc1nc(NCCN2CCCC2)nc(N(CCCCCCCCCCCC)CCCCCCCCCCCC)n1 [S18^2N12 D3] | 0.2
CCCCCCCCCCCCCCCCCCSc1nc(NCCN2CCCCC2)nc(N(CCCCCCCCCCCC)CCCCCCCCCCCC)n1 [S18^2N12 D4] | 0.0
CCCCCCCCCCCCCCCCCCSc1nc(NCCN2CCN(C)CC2)nc(N(CCCCCCCCCCCC)CCCCCCCCCCCC)n1 [S18^2N12 D5] | 0.0
CCCCCCCCCCCCCCCCCCSc1nc(NCCCN(C)C)nc(N(CCCCCCCCCCCC)CCCCCCCCCCCC)n1 [S18^2N12 D6] | 1.6
CCCCCCCCCCCCCCCCCCSc1nc(NCCN(CC)CC)nc(N(CCCCCCCCCCCC)CCCCCCCCCCCC)n1 [S18^2N12 D7] | 0.0
CCCCCCCCCCCCCCCCCCSc1nc(NCCCN2CCOCC2)nc(N(CCCCCCCCCCCC)CCCCCCCCCCCC)n1 [S18^2N12 D8] | 0.0
CCCCCCCCCCCCCCCCCCSc1nc(NCCCN2CCN(C)CC2)nc(N(CCCCCCCCCCCC)CCCCCCCCCCCC)n1 [S18^2N12 D9] | 0.0
CCCCCCCCCCCCCCCCCCSc1nc(NCC2CCN(C)CC2)nc(N(CCCCCCCCCCCC)CCCCCCCCCCCC)n1 [S18^2N12 D10] | 0.4

Tested on: HEK293 cells
Test: Preliminary screening as mRNA vectors, EGFP mRNA transfection of HEK293 cells
Type: cell-based
Details: EGFP mRNA 50 ng per well, 96-well plates; percentage of GFP fluorescent cells relative to total number of cells (Hoechst)
Description: Cell line: HEK293 cells (ATCC CRL-1573™)
Medium: DMEM supplemented with 10% fetal bovine serum (Invitrogen)
Screening: cell transfection on 96-well plates
Detection (readout): percentage of the number of GFP fluorescent cells relative to the total number of cells (the total number of cells was determined using nucleus dye Hoechst). Lipofectamine2000 (Invitrogen) was used as the positive control.
Method: the experimental method was basically the same with Example 4, and the mass of EGFP mRNA (TriLink) for transfection was 50 ng per well.

Compound | Absolute mRNA transfection efficiency in HEK293 cells [%]
CCCCCCNc1nc(NCCN(C)C)nc(SCCCCCC)n1 [Compound D1S6N6] | 0.8
CCCCCCCNc1nc(NCCN(C)C)nc(SCCCCCC)n1 [Compound D1S6N7] | 2.3
CCCCCCCCNc1nc(NCCN(C)C)nc(SCCCCCC)n1 [Compound D1S6N8] | 3.1
CCCCCCCCCNc1nc(NCCN(C)C)nc(SCCCCCC)n1 [Compound D1S6N9] | 1.8
